36 compounds from patent US20240158355A1, “BET SUBFAMILY INHIBITORS AND METHODS USING SAME” (Baylor College of Medicine, priority 2021, published 2024) can be followed below.

A value given as a limit tells only on which side of the number the result lay.

One may read the IC50 as the concentration at which inhibition is half-maximal. Lower therefore signals higher potency.

The assay addresses BRDT-BD2 (Homo sapiens (Human), UniProt Q58F21). Briefly: AlphaScreen bromodomain proximity assay (competition with biotinylated (+)-JQ1), BRDT-BD2. Format: binding. (In general: Bead proximity is the source of the signal in Alpha formats.)
In the case of `CNC(=O)c1ccc(C(=O)Nc2cc(NC(=O)c3ccc4c(c3)c(-c3ccc(N)nc3C)nn4C)ccc2C)cc1` [compound 14, N^1-(5-(3-(6-Amino-2-methylpyridin-3-yl)-1-methyl-1H-indazole-5-carboxamido)-2-methylphenyl)-N^4-methylterephthalamide], the IC50 amounted to 94 nM.

Turning to `CC(=O)Nc1cc(NC(=O)c2ccc3c(c2)c(-c2cnc(N)cc2C)nn3C)ccc1C` [compound 16, N-(3-Acetamido-4-methylphenyl)-3-(6-amino-4-methylpyridin-3-yl)-1-methyl-1H-indazole-5-carboxamide], the half-maximal inhibitory concentration (IC50) was found to be 126 nM.

For the compound `COc1ccc(NC(=O)c2ccc3c(c2)c(-c2cc4ccccc4n2C)nn3C)cc1` [compound 28, N-(4-Methoxyphenyl)-1-methyl-3-(1-methyl-1H-indol-2-yl)-1H-indazole-5-carboxamide], the IC50 was 121 nM.

On to `COc1ccc(NC(=O)c2ccc3c(c2)c(-c2cc4ccccc4n2C)nn3C)cc1C` [compound 29, N-(4-Methoxy-3-methylphenyl)-1-methyl-3-(1-methyl-1H-indol-2-yl)-1H-indazole-5-carboxamide], for which the IC50 is 111 nM.

In the case of `COc1ccc(NC(=O)c2ccc3c(c2)c(-c2cc4ccccc4n2C)nn3C)cc1OC` [compound 30, N-(3,4-Dimethoxyphenyl)-1-methyl-3-(1-methyl-1H-indol-2-yl)-1H-indazole-5-carboxamide], the IC50 came out at 101 nM.

Compound `COc1ccc(NC(=O)c2ccc3c(c2)c(-c2cc4ccccc4n2C)nn3C)cc1F` [compound 31, N-(3-Fluoro-4-methoxyphenyl)-1-methyl-3-(1-methyl-1H-indol-2-yl)-1H-indazole-5-carboxamide] returned an IC50 of 119 nM.

`COc1ccc(NC(=O)c2ccc3c(c2)c(-c2cc4ccccc4n2C)nn3C)cc1Cl` [compound 32, N-(3-Chloro-4-methoxyphenyl)-1-methyl-3-(1-methyl-1H-indol-2-yl)-1H-indazole-5-carboxamide] had a 50% inhibitory concentration (IC50) of 164 nM.

As to `COc1ccc(NC(=O)c2ccc3c(c2)c(-c2cc4ccccc4n2C)nn3C)c(C)c1` [compound 33, N-(4-Methoxy-2-methylphenyl)-1-methyl-3-(1-methyl-1H-indol-2-yl)-1H-indazole-5-carboxamide], the IC50 is 183 nM.

On to `COc1ccc(NC(=O)c2ccc3c(c2)c(-c2cc4ccccc4n2C)nn3C)c(OC)c1` [compound 34, N-(2,4-Dimethoxyphenyl)-1-methyl-3-(1-methyl-1H-indol-2-yl)-1H-indazole-5-carboxamide], for which the half-inhibitory concentration (IC50) worked out at 926 nM.

The compound `COc1ccc(NC(=O)c2ccc3c(c2)c(-c2cc4ccccc4n2C)nn3C)c(F)c1` [compound 35, N-(2-Fluoro-4-methoxyphenyl)-1-methyl-3-(1-methyl-1H-indol-2-yl)-1H-indazole-5-carboxamide] gave an IC50 of 203 nM.

`COc1ccc(NC(=O)c2ccc3c(c2)c(-c2cc4ccccc4n2C)nn3C)c(Cl)c1` [compound 36, N-(2-Chloro-4-methoxyphenyl)-1-methyl-3-(1-methyl-1H-indol-2-yl)-1H-indazole-5-carboxamide] displayed an IC50 above 1250 nM.

The compound `CNC(=O)c1ccc(C(=O)Nc2cc(NC(=O)c3ccc4c(c3)c(-c3ccc(OCc5ccccc5)cc3)nn4C)ccc2C)cc1` [compound 37, N^1-(5-(3-(4-(Benzyloxy)phenyl)-1-methyl-1H-indazole-5-carboxamido)-2-methylphenyl)-N^4-methylterephthalamide] registered a half-maximal inhibitory concentration (IC50) above 10000 nM.

With `CNC(=O)c1ccc(C(=O)Nc2cc(NC(=O)c3ccc4c(c3)c(-c3ccc(N5CCNCC5)nc3)nn4C)ccc2C)cc1` [compound 38], the IC50 was above 10000 nM.

In turn, `CNC(=O)c1ccc(C(=O)Nc2cc(NC(=O)c3ccc4c(c3)c(-c3ccc(N5CCOCC5)nc3)nn4C)ccc2C)cc1` [compound 39, N^1-Methyl-N^4-(2-methyl-5-(1-methyl-3-(6-morpholinopyridin-3-yl)-1H-indazole-5-carboxamido)phenyl)terephthalamide] displayed an IC50 above 10000 nM.

As to `CNC(=O)c1ccc(C(=O)Nc2cc(NC(=O)c3ccc4c(c3)c(-c3ccc(Cl)cc3)nn4C)ccc2C)cc1` [compound 40, N^1-(5-(3-(4-Chlorophenyl)-1-methyl-1H-indazole-5-carboxamido)-2-methylphenyl)-N^4-methylterephthalamide], the concentration for half-maximal inhibition (IC50) stood at 106 nM.

As to `CC(=O)Nc1cc(NC(=O)c2ccc3c(c2)c(-c2ccc(Cl)cc2C)nn3C)ccc1C` [compound 41, N-(3-Acetamido-4-methylphenyl)-3-(4-chloro-2-methylphenyl)-1-methyl-1H-indazole-5-carboxamide], the IC50 is 58 nM.

`CC(=O)Nc1cc(NC(=O)c2ccc3c(c2)c(-c2ccc(Cl)cc2Cl)nn3C)ccc1C` [compound 42, N-(3-Acetamido-4-methylphenyl)-3-(2,4-dichlorophenyl)-1-methyl-1H-indazole-5-carboxamide] displayed an IC50 of 320 nM.

`COc1ccc(NC(=O)c2ccc3c(c2)c(-c2ccncc2)nn3C)cc1` [compound 43, N-(4-Methoxyphenyl)-1-methyl-3-(pyridin-4-yl)-1H-indazole-5-carboxamide] displayed an IC50 of 978 nM.

On to `COc1ccc(NC(=O)c2ccc3c(c2)c(-c2ccncc2C)nn3C)cc1` [compound 44, N-(4-Methoxyphenyl)-1-methyl-3-(3-methylpyridin-4-yl)-1H-indazole-5-carboxamide], for which the IC50 was found to be 705 nM.

`Cc1ccc(NC(=O)c2ccc3c(c2)c(-c2ccc(N)nc2)nn3C)cc1NC(=O)C1CCN(C)CC1` [compound 45, 3-(6-Aminopyridin-3-yl)-1-methyl-N-(4-methyl-3-(1-methylpiperidine-4-carboxamido)phenyl)-1H-indazole-5-carboxamide] showed a concentration for half-maximal inhibition (IC50) of 58 nM.

For `Cc1ccc(NC(=O)c2ccc3c(c2)c(-c2ccc(N)nc2)nn3C)cc1NC(=O)N1CCNCC1` [compound 46, 3-(6-Aminopyridin-3-yl)-1-methyl-N-(4-methyl-3-(piperazine-1-carboxamido)phenyl)-1H-indazole-5-carboxamide], the half-inhibitory concentration (IC50) turned out to be 79 nM.

Take `Cc1ccc(NC(=O)c2ccc3c(c2)c(-c2ccc(N)nc2)nn3C)cc1NC(=O)C1CCCCC1` [compound 47, 3-(6-Aminopyridin-3-yl)-N-(3-(cyclohexanecarboxamido)-4-methylphenyl)-1-methyl-1H-indazole-5-carboxamide]: the IC50 worked out at 113 nM.

The compound `Cc1ccc(NC(=O)c2ccc3c(c2)c(-c2ccc(N)nc2)nn3C)cc1NC(=O)[C@H]1CC[C@@H](N)CC1` [compound 48, N-(3-((1s,4s)-4-Aminocyclohexane-1-carboxamido)-4-methylphenyl)-3-(6-aminopyridin-3-yl)-1-methyl-1H-indazole-5-carboxamide] had a half-maximal inhibitory concentration (IC50) of 51 nM.

The compound `CNC(=O)[C@H]1CC[C@H](C(=O)Nc2cc(NC(=O)c3ccc4c(c3)c(-c3ccc(N)nc3)nn4C)ccc2C)CC1` [compound 49] displayed an IC50 of 68 nM.

`CN1CCC(NC(=O)c2ccc3c(c2)c(-c2ccc(N)nc2)nn3C)CC1` [compound 50, 3-(6-Aminopyridin-3-yl)-1-methyl-N-(1-methylpiperidin-4-yl)-1H-indazole-5-carboxamide] registered a concentration for half-maximal inhibition (IC50) above 200 nM.

`CC(=O)N1CCC(NC(=O)c2ccc3c(c2)c(-c2ccc(N)nc2)nn3C)CC1` [compound 51, N-(1-Acetylpiperidin-4-yl)-3-(6-aminopyridin-3-yl)-1-methyl-1H-indazole-5-carboxamide] showed an IC50 above 200 nM.

`Cn1nc(-c2ccc(N)nc2)c2cc(C(=O)NC3CCN(C(=O)OC(C)(C)C)CC3)ccc21` [compound 52, tert-Butyl 4-(3-(6-aminopyridin-3-yl)-1-methyl-1H-indazole-5-carboxamido)piperidine-1-carboxylate] returned an IC50 above 200 nM.

In the case of `Cn1nc(-c2ccc(N)nc2)c2cc(C(=O)NC3CCNCC3)ccc21` [compound 53, 3-(6-Aminopyridin-3-yl)-1-methyl-N-(piperidin-4-yl)-1H-indazole-5-carboxamide], the IC50 is above 200 nM.

`Cn1nc(-c2ccc(N)nc2)c2cc(C(=O)Nc3cccc(C(=O)O)c3)ccc21` [compound 54, 3-(3-(6-Aminopyridin-3-yl)-1-methyl-1H-indazole-5-carboxamido)benzoic acid]: the IC50 worked out at 381 nM.

For the compound `Cc1ccc(NC(=O)c2ccc3c(c2)c(-c2ccc(N)cc2C)nn3C)cc1C(N)=O` [compound 56, 3-(4-Amino-2-methylphenyl)-N-(3-carbamoyl-4-methylphenyl)-1-methyl-1H-indazole-5-carboxamide], the concentration for half-maximal inhibition (IC50) was determined as 34 nM.

As for `CNC(=O)c1cccc(NC(=O)c2ccc3c(c2)c(-c2ccc(N)cc2C)nn3C)c1` [compound 57, 3-(4-Amino-2-methylphenyl)-1-methyl-N-(3-(methylcarbamoyl)phenyl)-1H-indazole-5-carboxamide], the IC50 came out at 29 nM.

In turn, `Cc1ccc(NC(=O)c2ccc3c(c2)c(-c2ccc(N)cc2C)nn3C)cc1NS(C)(=O)=O` [compound 58, 3-(4-Amino-2-methylphenyl)-1-methyl-N-(4-methyl-3-(methylsulfonamido)phenyl)-1H-indazole-5-carboxamide] yielded an IC50 of 67 nM.

Consider `Cc1ccc(NC(=O)c2ccc3c(c2)c(-c2ccc(N)cc2C)nn3C)cc1` [compound 60, 3-(4-Amino-2-methylphenyl)-1-methyl-N-(p-tolyl)-1H-indazole-5-carboxamide], for which the 50% inhibitory concentration (IC50) came to 91 nM.

`Cc1cc(N)ccc1-c1nn(C)c2ccc(C(=O)Nc3ccc(C(F)(F)F)cc3)cc12` [compound 61, 3-(4-Amino-2-methylphenyl)-1-methyl-N-(4-(trifluoromethyl)phenyl)-1H-indazole-5-carboxamide]: the IC50 was 898 nM.

`CCOc1ccc(NC(=O)c2ccc3c(c2)c(-c2ccc(N)cc2C)nn3C)cc1` [compound 62, 3-(4-Amino-2-methylphenyl)-N-(4-ethoxyphenyl)-1-methyl-1H-indazole-5-carboxamide] showed a half-maximal inhibitory concentration (IC50) of 48 nM.

In turn, `Cc1cc(N)ccc1-c1nn(C)c2ccc(C(=O)Nc3ccc(F)cc3)cc12` [compound 63, 3-(4-Amino-2-methylphenyl)-N-(4-fluorophenyl)-1-methyl-1H-indazole-5-carboxamide] returned an IC50 of 101 nM.
